Where two headings read alike, the source gives them in different places.
Key:
Aβ 40 in rat CSF = experiment: In vivo inhibition of beta-secretase: Aβ40 reduction in rat CSF; settings: after 4 h
Text: In Vivo Inhibition of Beta-Secretase
Several animal models, including mouse, rat, dog, and monkey, may be used to screen for inhibition of beta-secretase activity in vivo following administration of a test compound sample. Animals used in this invention can be wild type, transgenic, or gene knockout animals. For example, the Tg2576 mouse model, prepared and conducted as described in Hsiao et al., 1996, Science 274, 99-102, and other non-transgenic or gene knockout animals are useful to analyze in vivo inhibition of Amyloid beta peptide (Abeta) production in the presence of inhibitory test compounds. Generally, 2 to 18 month old Tg2576 mice, gene knockout mice or non-transgenic animals are administered test compounds formulated in vehicles, such as cyclodextran, phosphate buffers, hydroxypropyl methylcellulose or other suitable vehicles. One to twenty-four hours following the administration of compound, animals are sacrificed, and brains as well as cerebrospinal fluid (CSF) and plasma are removed for analysis of A-beta levels and drug or test compound concentrations (Dovey et al., 2001, Journal of Neurochemistry, 76,173-181) Beginning at time 0, animals are administered by oral gavage, or other means of delivery such as intravenous injection, an inhibitory test compound of up to 100 mg/kg in a standard, conventional formulation, such as 2% hydroxypropyl methylcellulose, 1% Tween80. A separate group of animals receive 2% hydroxypropyl methylcellulose, 1% Tween80 alone, containing no test compound, and serve as a vehicle-control group. At the end of the test period, animals are sacrificed and brain tissues, plasma or cerebrospinal fluid are collected. […] Homogenates are centrifuged at 355,000 g, 4° C. for 30 minutes. CSF or brain supernatants are then analyzed for the presence of A-beta peptide by specific sandwich ELISA assays based on ECL (Electrochemiluminescence) technology. For example, rat Abeta40 is measured using biotinylated-4G8 (Signet) as a capture antibody and Fab40 (an in-house antibody specific to the C-terminal of Abeta40) as a detection antibody. For example, 4 hours after administration of 30 mg/kg oral dose of the test compound in 2% hydroxypropyl methylcellulose, 1% Tween80 (pH2.2) to 200 g male Sprague Dawley rats, amyloid beta peptide levels are measured for reduction by X % and Y % in cerebrospinal fluid and brain, respectively, when compared to the levels measured in the vehicle-treated or control mice.
Actual vehicles used: Oral: 2% HPMC, 1% Tween80, pH 2.2
The compounds of the invention may be shown to reduce the formation and/or deposition of amyloid beta peptide in the cerebrospinal fluid (CSF) as well as in the brain of a mouse or rat at either 3 mpk, 10 mpk or 30 mpk (mpk=mg compound per kg weight of the animal) dosing concentrations after 4 h.

human recombinant BACE2 = human recombinant BACE2 (Homo sapiens (Human), UniProt Q9Y5Z0); experiment: In vitro enzymatic BACE2 FRET assay; format: biochemical; settings: read-out: IC50 IP (μM) BACE2 enzyme
Method in brief: (§1)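 Fluorescence from cleavage of a quenched peptide spanning the BACE site (50 nM) was read at 488 nm excitation, 590 nm emission. Purified enzyme (Ni-NTA) and compound reacted for one hour before a Tris stop shifted pH to neutral.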

[1] = test system: Aβ40 in conditioned medium of cells stably expressing Amyloid Precursor Protein (APP); experiment: In vitro BACE-1 cell-based assay (Aβ40 sandwich ELISA); settings: read-out: IC50 IP (μM) BACE1 cell
Method in brief: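 Aβ40 in supernatants measured by time-resolved fluorescence sandwich ELISA, with pAb40 as capture and biotin-6E10 as detector antibody, each incubated at 4 °C.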

Recombinant Cat D = Recombinant Cat D (Homo sapiens (Human), UniProt P07339); experiment: In vitro enzymatic Cathepsin D (Cat D) FRET assay; format: biochemical; settings: read-out: IC50 IP (μM) CatD
Method in brief: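 CHO-expressed enzyme; buffer 0.05 M citrate pH 3.5, 5 mM CHAPS, 10% DMSO final. Start with FRET substrate 20 nM, 1 h incubation, Tris stop (pH to neutral), fluorescence ex 500 nm/em 580 nm.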

human recombinant BACE1 = human recombinant BACE1 (Homo sapiens (Human), UniProt P56817); experiment: In vitro enzymatic BACE1 FRET assay; format: biochemical; settings: read-out: IC50 IP (μM) BACE1 enzyme
Method in brief: as §1

Sequence of human recombinant BACE2 (Q9Y5Z0 63-518): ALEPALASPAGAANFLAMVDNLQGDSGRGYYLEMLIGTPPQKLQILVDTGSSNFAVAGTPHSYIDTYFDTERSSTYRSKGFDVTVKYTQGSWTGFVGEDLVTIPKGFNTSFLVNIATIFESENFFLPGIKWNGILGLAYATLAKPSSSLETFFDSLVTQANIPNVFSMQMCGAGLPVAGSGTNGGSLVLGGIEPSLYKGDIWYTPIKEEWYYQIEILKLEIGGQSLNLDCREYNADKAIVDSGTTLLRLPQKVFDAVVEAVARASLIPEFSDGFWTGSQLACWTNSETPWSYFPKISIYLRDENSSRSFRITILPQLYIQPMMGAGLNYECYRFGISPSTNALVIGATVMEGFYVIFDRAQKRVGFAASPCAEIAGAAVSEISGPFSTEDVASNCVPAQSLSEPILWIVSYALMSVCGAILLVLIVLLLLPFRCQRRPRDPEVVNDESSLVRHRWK
Sequence of human recombinant BACE1 (P56817 46-501): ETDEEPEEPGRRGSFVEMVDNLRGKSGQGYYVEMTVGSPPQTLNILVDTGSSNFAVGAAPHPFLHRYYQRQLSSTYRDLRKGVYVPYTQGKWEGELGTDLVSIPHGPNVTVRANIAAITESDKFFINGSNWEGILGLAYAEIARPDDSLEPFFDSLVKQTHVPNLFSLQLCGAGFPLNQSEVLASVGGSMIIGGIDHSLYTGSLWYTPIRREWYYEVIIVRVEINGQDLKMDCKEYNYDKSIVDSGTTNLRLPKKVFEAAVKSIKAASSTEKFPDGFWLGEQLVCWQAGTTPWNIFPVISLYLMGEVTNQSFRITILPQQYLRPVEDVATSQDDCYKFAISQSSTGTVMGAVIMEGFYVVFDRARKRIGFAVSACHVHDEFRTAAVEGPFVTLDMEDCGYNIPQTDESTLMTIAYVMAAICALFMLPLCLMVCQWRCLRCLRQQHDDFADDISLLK
Sequence of Recombinant Cat D (P07339 65-412): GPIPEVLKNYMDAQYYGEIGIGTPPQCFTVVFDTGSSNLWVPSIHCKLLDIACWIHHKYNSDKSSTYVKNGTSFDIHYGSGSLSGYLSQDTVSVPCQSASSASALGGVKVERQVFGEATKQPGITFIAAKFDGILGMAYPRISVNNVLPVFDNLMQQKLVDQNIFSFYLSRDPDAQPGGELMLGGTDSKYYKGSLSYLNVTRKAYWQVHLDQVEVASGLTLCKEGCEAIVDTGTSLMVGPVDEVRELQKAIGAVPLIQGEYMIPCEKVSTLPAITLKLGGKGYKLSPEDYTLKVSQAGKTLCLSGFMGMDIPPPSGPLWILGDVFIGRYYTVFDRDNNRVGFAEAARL

| IC50 (human recombinant BACE2) [µM] | IC50 [1] [µM] | IC50 (Recombinant Cat D) [µM] | IC50 (human recombinant BACE1) [µM] | SMILES | further results |
| --- | --- | --- | --- | --- | --- |
| – | – | – | – | C[C@]1(c2cc(NC(=O)c3ccc(Cl)cn3)cc(F)c2F)N=C(N)S[C@@]2(CF)C[C@H]21 [Example 12, N-(3-((1S,5S,6S)-3-amino-1-(fluoromethyl)-5-methyl-2-thia-4-azabicyclo[4.1.0]hept-3-en-5-yl)-4,5-difluorophenyl)-5-chloropicolinamide] | % Aβ 40 reduction in rat CSF at 10 mpk (Aβ 40 in rat CSF): 75% |
| – | – | – | – | C#CCOc1cnc(C(=O)Nc2cc(F)c(F)c([C@@]3(C)N=C(N)S[C@@]4(C(F)F)C[C@@H]34)c2)cn1 [Example 807, N-(3-((1S,5S,6S)-3-amino-1-(difluoromethyl)-5-methyl-2-thia-4-azabicyclo[4.1.0]hept-3-en-5-yl)-4,5-difluorophenyl)-5-(2-propyn-1-yloxy)-2-pyrazinecarboxamide] | % Aβ 40 reduction in rat CSF (3 mpk) (Aβ 40 in rat CSF; 3 mpk): 80 (3 mpk) % |
| – | – | – | – | C[C@]1(c2cc(NC(=O)c3ccc(Cl)cn3)cc(F)c2F)N=C(N)S[C@H]2C[C@H]21 [Example 6, N-(3-((1S,5S,6S)-3-amino-5-methyl-2-thia-4-azabicyclo[4.1.0]hept-3-en-5-yl)-4,5-difluorophenyl)-5-chloro-2-pyridinec arboxamide] | % Aβ 40 reduction in rat CSF at 10 mpk (Aβ 40 in rat CSF): 78% |
| 0.00979 | 0.00121 | 101 | 0.000319 | C#CCOc1cnc(C(=O)Nc2ccc(F)c([C@@]3(C)N=C(N)S[C@]4(CO)[C@H]3C4(F)F)c2)cn1 [Example 749, N-(3-((1S,5S,6R)-3-amino-7,7-difluoro-1-(hydroxymethyl)-5-methyl-2-thia-4-azabicyclo[4.1.0]hept-3-en-5-yl)-4-fluorophenyl)-5-(2-propyn-1-yloxy)-2-pyrazinecarboxamide] | – |
| 0.00983 | 0.000345 | 143 | 0.00032 | C#CCOc1cnc(C(=O)Nc2cc(C)c(F)c([C@@]3(C)N=C(N)S[C@@]4(C(F)F)C[C@@H]34)c2)cn1 [Example 1072, N-(3-((1S,5S,6S)-3-amino-1-(difluoromethyl)-5-methyl-2-thia-4-azabicyclo[4.1.0]hept-3-en-5-yl)-4-fluoro-5-methylphenyl)-5-(prop-2-yn-1-yloxy)pyrazine-2-carboxamide] | – |
| 0.0125 | 0.0796 | 479 | 0.0148 | CC(=O)[C@]12C[C@H]1[C@@](C)(c1cc(Nc3ncnc4cc(Cl)cnc34)cc(F)c1F)N=C(N)S2 [Example 902, 1-((1S,5S,6S)-3-amino-5-(5-((7-chloropyrido[3,2-d]pyrimidin-4-yl)amino)-2,3-difluorophenyl)-5-methyl-2-thia-4-azabicyclo[4.1.0]hept-3-en-1-yl)ethanone] | – |
| – | – | – | – | C#CCOc1cnc(C(=O)Nc2cc(F)c(F)c([C@@]3(C)N=C(N)S[C@@]4(CO)C[C@H]43)c2)cn1 [Example 61, N-(3-((1S,5S,6S)-3-amino-1-(hydroxymethyl)-5-methyl-2-thia-4-azabicyclo[4.1.0]hept-3-en-5-yl)-4,5-difluorophenyl)-5-(2-propyn-1-yloxy)-2-pyrazinecarboxamide] | IC50 (human recombinant BACE2; BACE2 FRET enzyme assay): 0.0201 µM; IC50 ([1]; BACE1 cell-based assay): 0.00035 µM; IC50 (Recombinant Cat D; Cathepsin D FRET enzyme assay): 59.7 µM; IC50 (human recombinant BACE1; BACE1 FRET enzyme assay): 0.0003 µM |
| 0.00165 | 0.000224 | 67.5 | 0.00036 | C#CCOc1cnc(C(=O)Nc2ccc(F)c([C@@]3(C)N=C(N)S[C@@]4(C(=O)N5CCCC5)C[C@H]43)c2)cn1 [Example 633, N-(3-((1S,55,6S)-3-amino-5-methyl-1-(1-pyrrolidinylcarbonyl)-2-thia-4-azabicyclo[4.1.0]hept-3-en-5-yl)-4-fluorophenyl)-5-(2-propyn-1-yloxy)-2-pyrazinecarboxamide] | – |
| 0.658 | 0.022 | > 400 | > 16 | COC[C@]12C[C@H]1[C@@](C)(c1cc(NC(=O)c3cnc(OCC4(C)COC4)cn3)cc(F)c1F)N=C(N)S2 [Example 1062, N-(3-((1S,5S,6S)-3-amino-1-(methoxymethyl)-5-methyl-2-thia-4-azabicyclo[4.1.0]hept-3-en-5-yl)-4,5-difluorophenyl)-5-((3-methyl-3-oxetanyl)methoxy)-2-pyrazinecarboxamide] | – |
| – | – | – | – | COC[C@@]12C[C@@H]1[C@@](CF)(c1cc(NC(=O)c3ccc(Cl)cn3)cc(F)c1F)N=C(N)S2 [Example 96, N-(3-((1R,5S,6R)-3-amino-5-(fluoromethyl)-1-(methoxymethyl)-2-thia-4-azabicyclo[4.1.0]hept-3-en-5-yl)-4,5-difluorophenyl)-5-chloro-2-pyridinecarboxamide] | IC50 (human recombinant BACE2; BACE2 FRET enzyme assay): 0.0024 µM; IC50 ([1]; BACE1 cell-based assay): 0.0174 µM; IC50 (Recombinant Cat D; Cathepsin D FRET enzyme assay): 40.4 µM; IC50 (human recombinant BACE1; BACE1 FRET enzyme assay): 0.00726 µM |
| 1.41 | 0.252 | 306 | 0.0418 | Cc1nnc(COc2cnc3c(Nc4cc(F)c(F)c([C@@]5(C)N=C(N)S[C@@]6(C(F)F)C[C@@H]56)c4)nccc3n2)s1 [Example 889, N-(3-((1S,5S,6S)-3-amino-1-(difluoromethyl)-5-methyl-2-thia-4-azabicyclo[4.1.0]hept-3-en-5-yl)-4,5-difluorophenyl)-2-((5-methyl-1,3,4-thiadiazol-2-yl)methoxy)pyrido[3,4-b]pyrazin-5-amine] | – |
| 0.807 | 0.12 | 1640 | 0.123 | COC[C@]12C[C@H]1[C@@](C)(c1cc(NC(=O)c3cnc(O[C@H](C)C(F)(F)F)cn3)ccc1F)N=C(N)S2 (single isomer, unassigned) [Example 996] | – |
| 0.0237 | 0.000956 | > 400 | 0.000975 | C[C@]1(c2cc(NC(=O)c3cnc(OCc4ncco4)cn3)cnc2F)N=C(N)S[C@@]2(CF)C[C@H]21 [Example 607, N-(5-((1S,5S,6S)-3-amino-1-(fluoromethyl)-5-methyl-2-thia-4-azabicyclo[4.1.0]hept-3-en-5-yl)-6-fluoro-3-pyridinyl)-5-(1,3-oxazol-2-ylmethoxy)-2-pyrazinecarboxamide] | – |
| < 0.00203 | 0.00164 | 152 | 0.000587 | C[C@]1(c2cc(NC(=O)c3ccc(Cl)cn3)ccc2F)N=C(N)S[C@@]2(C(F)F)C[C@@H]12 [Example 818, N-(3-((1S,5S,6S)-3-amino-1-(difluoromethyl)-5-methyl-2-thia-4-azabicyclo[4.1.0]hept-3-en-5-yl)-4-fluorophenyl)-5-chloro-2-pyridinecarboxamide] | – |
| 0.0677 | 0.00474 | 2130 | 0.00162 | N#CC[C@]12C[C@H]1[C@@](CF)(c1cc(Nc3nccc4nc(OCc5ncco5)cnc34)ccc1F)N=C(N)S2 [Example 721, ((1R,5S,6S)-3-amino-5-(fluoromethyl)-5-(2-fluoro-5-((2-(1,3-oxazol-2-ylmethoxy)pyrido[3,4-b]pyrazin-5-yl)amino)phenyl)-2-thia-4-azabicyclo[4.1.0]hept-3-en-1-yl)acetonitrile] | – |
| – | – | – | – | COC[C@]12C[C@H]1[C@@](C)(c1cc(NC(=O)c3cnc(OCC(F)(F)F)cn3)cc(F)c1F)N=C(N)S2 [Example 815, N-(3-((1S,5S,6S)-3-amino-1-(methoxymethyl)-5-methyl-2-thia-4-azabicyclo[4.1.0]hept-3-en-5-yl)-4,5-difluorophenyl)-5-(2,2,2-trifluoroethoxy)-2-pyrazinecarboxamide] | % Aβ 40 reduction in rat CSF at 10 mpk (Aβ 40 in rat CSF): 50% |

— patent publication US20160046618A1, “Cyclopropyl Fused Thiazin-2-Amine Compounds as Beta-Secretase Inhibitors and Methods of Use” (AMGEN INC., priority 2014, published 2016)
